Earlier results as cited in US20200404921A1, “SOIL TREATMENT WITH METAM SALTS AND ONE OR MORE OF CALCIUM THIOSULFATE, CALCIUM CHLORIDE AND CALCIUM NITRATE” (Tessenderlo Kerley, Inc., priority 2018, published 2020).

Columns and labels:
[1] = more soluble than gypsum
soilborne disease = settings: about 40 gallons of metam sodium per acre (190 Kg of active ingredient/ha), commercial conditions

Structure (SMILES)	solubility relative to gypsum [1]	reduction of certain soilborne disease (soilborne disease)
O=S([O-])([O-])=S.[Ca+2] [calcium thiosulfate]	125 times	–
CNC(=S)S [metam sodium, sodium methyldithiocarbamate]	–	~70%
